# Measurements published in patent publication US11180461B2, “Triazoles as Kv3 inhibitors” (AUTIFONY THERAPEUTICS LIMITED, priority 2012, dated 2021).
# Molecular target: T1, human Kv3.3 channels (hKv3.3) (Homo sapiens, UniProt Q14003)
# T1 construct: expressed in transfected cells
# T1 sequence (Q14003 1-757): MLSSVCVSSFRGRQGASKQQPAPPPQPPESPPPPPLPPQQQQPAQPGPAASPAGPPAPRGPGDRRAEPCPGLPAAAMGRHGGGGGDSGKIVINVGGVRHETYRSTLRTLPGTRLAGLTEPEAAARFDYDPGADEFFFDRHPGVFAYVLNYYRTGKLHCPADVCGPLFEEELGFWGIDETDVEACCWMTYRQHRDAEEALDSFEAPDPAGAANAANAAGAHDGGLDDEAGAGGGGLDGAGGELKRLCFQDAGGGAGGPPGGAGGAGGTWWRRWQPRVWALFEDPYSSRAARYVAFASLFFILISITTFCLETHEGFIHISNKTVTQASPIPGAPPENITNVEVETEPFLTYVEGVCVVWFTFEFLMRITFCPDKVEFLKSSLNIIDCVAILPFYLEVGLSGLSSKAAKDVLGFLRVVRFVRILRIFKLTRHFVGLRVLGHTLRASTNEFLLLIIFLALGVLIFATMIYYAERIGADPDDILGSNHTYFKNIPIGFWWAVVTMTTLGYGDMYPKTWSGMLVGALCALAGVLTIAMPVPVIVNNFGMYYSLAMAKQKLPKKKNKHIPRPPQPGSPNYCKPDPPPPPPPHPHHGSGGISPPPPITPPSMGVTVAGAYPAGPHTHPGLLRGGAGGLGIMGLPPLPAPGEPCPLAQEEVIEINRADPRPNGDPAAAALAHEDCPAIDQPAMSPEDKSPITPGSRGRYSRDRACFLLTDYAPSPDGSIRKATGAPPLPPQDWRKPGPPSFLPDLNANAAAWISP
# Assay: hKv3.3 recombinant cell assay, IonWorks Quattro planar array electrophysiology
# Format: cell-based
# Conditions: 12.5 micromolar; mean, n=2
# Description: The ability of the compounds of the invention to modulate the voltage-gated potassium channel subtypes Kv3.2/3.1 may be determined using the following assay. The assay may also be used to determine the ability of compounds of the invention to modulate the voltage-gated potassium channel Kv3.3. Analogous methods may be used to investigate the ability of the compounds of the invention to modulate other channel subtypes.
# To assess compound effects on human Kv3.3 channels (hKv3.3), a stable cell line expressing human Kv3.3 channels was created by transfecting Chinese Hamster Ovary (CHO)—K1 cells with a pBacMire_KCNC-3 vector. Cells were cultured in DMEM/F12 (Gibco) supplemented with 10% Foetal Bovine Serum (Gibco), 1× non-essential amino acids (Invitrogen) and geneticin (G418) 400 microg/mL. Cells were grown and maintained at 37° C. in a humidified environment containing 5% CO2 in air. […]
# Experiments were conducted at room temperature using IonWorks Quattro™ planar array electrophysiology technology (Molecular Devices Corp.) with PatchPlate™ PPC. […] Planar electrode hole resistances (Rp) were determined by applying a 10 mV voltage step across each well. […] Test pulses protocol may be performed in the absence (pre-read) and presence (post-read) of the test compound. Pre- and post-reads may be separated by the compound addition followed by a 3 minute incubation. […]
smiles,measurement,value
"Cc1ccc(Oc2ccc(-n3c(C)n[nH]c3=O)cn2)c2c1OCC21CC1 [Example 14, 5-methyl-4-{6-[(7-methylspiro[1-benzofuran-3,1′-cyclopropan]-4-yl)oxy]pyridin-3-yl}-2,4-dihydro-3H-1,2,4-triazol-3-one]",increase in human Kv3.3 peak current at 0 mV,75%
